Columns and labels:
human EGF-R = target: T1, human EGF-R (Homo sapiens, UniProt P00533); assay: Inhibition of EGF-dependent proliferation of F/L-HERc cells (Cell Titer 96 assay); type: cell-based; details: F/L-HERc cells (murine IL-3-dependent line expressing human EGF-R), stimulated with EGF 20 ng/ml, 48 hours at 37° C.
T1 construct: expressed in transfected cells; host or cells: F/L-HERc cells (murine IL-3-dependent FDC-P1 line transduced with an LXSN retroviral vector carrying human EGF-R cDNA; packaging line GP+E86)
T1 sequence (P00533 25-1210): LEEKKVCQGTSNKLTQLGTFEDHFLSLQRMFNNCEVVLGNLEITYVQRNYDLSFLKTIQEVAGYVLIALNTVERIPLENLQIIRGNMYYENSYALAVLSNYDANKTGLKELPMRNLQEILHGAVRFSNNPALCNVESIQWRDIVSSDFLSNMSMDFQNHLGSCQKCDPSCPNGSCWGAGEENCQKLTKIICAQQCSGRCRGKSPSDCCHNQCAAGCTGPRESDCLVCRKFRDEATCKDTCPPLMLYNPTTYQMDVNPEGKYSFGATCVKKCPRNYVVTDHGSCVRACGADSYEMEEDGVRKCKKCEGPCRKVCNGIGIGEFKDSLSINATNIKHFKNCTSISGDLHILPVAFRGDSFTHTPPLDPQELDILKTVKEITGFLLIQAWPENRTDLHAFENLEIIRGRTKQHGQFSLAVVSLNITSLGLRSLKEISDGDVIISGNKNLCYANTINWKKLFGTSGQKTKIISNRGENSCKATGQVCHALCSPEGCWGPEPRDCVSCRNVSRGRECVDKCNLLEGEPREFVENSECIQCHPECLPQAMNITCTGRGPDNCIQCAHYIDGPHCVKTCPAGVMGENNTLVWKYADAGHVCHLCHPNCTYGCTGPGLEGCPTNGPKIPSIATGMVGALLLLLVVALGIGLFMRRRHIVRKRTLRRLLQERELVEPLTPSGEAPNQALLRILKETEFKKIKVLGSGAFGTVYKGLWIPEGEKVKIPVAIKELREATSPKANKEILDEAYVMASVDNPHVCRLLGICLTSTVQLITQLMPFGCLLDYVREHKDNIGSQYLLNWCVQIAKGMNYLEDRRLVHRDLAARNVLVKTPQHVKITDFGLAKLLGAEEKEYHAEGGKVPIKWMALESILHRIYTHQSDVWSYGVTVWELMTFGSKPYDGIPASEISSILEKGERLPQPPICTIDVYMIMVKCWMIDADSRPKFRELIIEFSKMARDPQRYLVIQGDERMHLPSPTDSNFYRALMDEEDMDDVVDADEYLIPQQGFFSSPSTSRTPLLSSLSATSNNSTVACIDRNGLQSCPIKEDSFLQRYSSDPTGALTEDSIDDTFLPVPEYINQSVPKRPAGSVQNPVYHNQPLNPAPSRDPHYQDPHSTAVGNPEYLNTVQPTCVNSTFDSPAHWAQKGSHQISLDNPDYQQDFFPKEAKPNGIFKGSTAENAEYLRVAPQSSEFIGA
Description: A cell line of murine origin dependent on interleukin-3-(IL-3) which was genetically modified to express functional human EGF-R was used here. The proliferation of these cells known as F/L-HERc can therefore be stimulated either by murine IL-3 or by EGF (cf T. von Ruiden et al., EMBO J. 7, 2749-2756 (1988) and J. H. Pierce et al., Science 239, 628-631 (1988)).
The starting material used for the F/L-HERc cells was the cell line FDC-P1, the production of which has been described by T. M. Dexter et al., J. Exp. Med. 152. 1036-1047 (1980). Alternatively, however, other growth-factor-dependent cells may also be used (cf., e.g., J.H. Pierce et al., Science 239, 628-631 (1988); H. Shibuya et al., Cell 70, 57-67 (1992); and W. S. Alexander et al., EMBO J. 10, 3683-3691 (1991)). For expressing the human EGF-R cDNA (cf A. Ullrich et al., Nature 309, 418-425 (1984)) recombinant retroviruses were used as described by T. von Ruiden et al., EMBO J. 7, 2749-2756 (1988), except that the retroviral vector LXSN (cf A. D. Miller et al., BioTechniques 7, 980-990 (1989)) was used for the expression of the EGF-R cDNA and the line GP+E86 (cf D. Markowitz et al., J. Virol. 62, 1120-1124 (1988)) was used as the packaging cell.
The test was performed as follows:
F/L-HERc cells were cultivated in RPMI/1640 medium (BioWhittaker), supplemented with 10% fetal calf serum (FCS, Boehringer Mannheim), 2 mM glutamine (BioWhittaker), standard antibiotics and 20 ng/ml of human EGF (Promega), at 37° C. and 5% CO2. In order to investigate the inhibitory activity of the compounds according to the invention, 1.5×10^4 cells per well were cultivated in triplicate in 96-well plates in the above medium (200 μl), the cell proliferation being stimulated with either EGF (20 ng/ml) or murine IL-3. The IL-3 used was obtained from culture supernatants of the cell line X63/0 mIL-3 (cf H. Karasuyama et al., Eur. J. Immunol. 18, 97-104 (1988)). The compounds according to the invention were dissolved in 100% dimethylsulfoxide (DMSO) and added to the cultures in various dilutions, the maximum DMSO concentration being 1%. The cultures were incubated for 48 hours at 37° C.
In order to determine the inhibitory activity of the compounds according to the invention the relative cell number was measured in O.D. units using the Cell Titer 96™ Aqueous Non-Radioactive Cell Proliferation Assay (Promega). The relative cell number was calculated as a percentage of the control (F/LHERc cells without inhibitor) and the concentration of active substance which inhibits the proliferation of the cells by 50% (IC50) was derived therefrom.

Row | Structure (SMILES) | IC50 (human EGF-R) [nM] | melting point
1 | CCOC(=O)CN1CCC(CCNc2ncc3ncnc(Nc4ccc(F)c(Cl)c4)c3n2)CC1 [2(13), 4-[(3-chloro-4-fluorophenyl)amino]-6-(2-{1-[(ethoxycarbonyl)methyl]piperidin-4-yl}ethylamino)pyrimido[5,4-d]pyrimidine] | 1030 | 128 to 130 °C
2 | COC(=O)CN1CCC(Nc2ncc3ncnc(Nc4ccc(F)c(Cl)c4)c3n2)CC1 [2(1), 4-[(3-chloro-4-fluorophenyl)amino]-6-({1-[(methoxycarbonyl)methyl]piperidin-4-yl}amino)pyrimido [5,4-d]pyrimidine] | 15 | 162 to 164 °C
3 | COC(=O)CN1CCC(Nc2ncc3ncnc(Nc4cccc(Cl)c4)c3n2)CC1 [2(23), 4-[(3-chlorophenyl)amino]-6-({1-[(methoxycarbonyl)methyl]piperidin-4-yl}amino)pyrimido[5,4-d]pyrimidine] | 25 | 129 °C
4 | CCOP(=O)(CN1CCC(Nc2ncc3ncnc(Nc4cccc(Br)c4)c3n2)CC1)OCC [4(1), 4-[(3-bromophenyl)amino]-6-({1-[(diethoxyphosphoryl)methyl]piperidin-4-yl}amino)pyrimido[5,4-d]pyrimidine] | 40 | 
5 | COC(=O)CN(C)[C@H]1CC[C@H](Nc2ncc3ncnc(Nc4ccc(F)c(Cl)c4)c3n2)CC1 [2(7), 4-[(3-chloro-4-fluorophenyl)amino]-6-[(trans-4-{N-[(methoxycarbonyl)methyl]-N-methylamino}cyclohex-1-yl)amino]pyrimido[5,4-d]pyrimidine] | 60 | 131 to 134 °C
6 | CCOC(=O)CCN1CCC(N2CCN(c3ncc4ncnc(Nc5ccc(F)c(Cl)c5)c4n3)CC2)CC1 [2(12), 4-[(3-chloro-4-fluorophenyl)amino]-6-(4-{1-[2-(ethoxycarbonyl)ethyl]piperidin-4-yl}piperazin-1-yl)pyrimido[5,4-d]pyrimidine] | 810 | 
7 | CCOC(=O)C1CCN(CCNc2ncc3ncnc(Nc4ccc(F)c(Cl)c4)c3n2)CC1 [2(14), 4-[(3-chloro-4-fluorophenyl)amino]-6-{2-[4-(ethoxycarbonyl)piperidin-1-yl]ethylamino}pyrimido[5,4-d]pyrimidine] | 1150 | 137 to 139 °C
8 | COC(=O)CN(C)CC1CCN(c2ncc3ncnc(Nc4ccc(F)c(Cl)c4)c3n2)CC1 [2(19), 4-[(3-chloro-4-fluorophenyl)amino]-6-[4-({N-[(methoxycarbonyl)methyl]-N-methylamino}methyl)piperidin-1-yl]pyrimido[5,4-d]pyrimidine] | 129 | 
9 | CCOC(=O)CN1CCN(c2ncc3ncnc(Nc4ccc(F)c(Cl)c4)c3n2)CC1 [2(10), 4-[(3-chloro-4-fluorophenyl)amino]-6-[4-[(ethoxycarbonyl)methyl]piperazin-1-yl]pyrimido[5,4-d]pyrimidine] | 2040 | 179 to 182 °C
10 | CN(CC(=O)O)[C@H]1CC[C@H](Nc2ncc3ncnc(Nc4ccc(F)c(Cl)c4)c3n2)CC1 [1(3), 4-[(3-chloro-4-fluorophenyl)amino]-6-({trans-4-[N-(carboxymethyl)-N-methylamino]cyclohex-1-yl}amino)pyrimido[5,4-d]pyrimidine] | 320 | 220 to 228 °C
11 | CCOP(C)(=O)CN1CCC(Nc2ncc3ncnc(Nc4cccc(Br)c4)c3n2)CC1 (centres unmarked) [4(2), 4-[(3-bromophenyl)amino]-6-[(1-{[(ethoxy)(methyl)phosphoryl]methyl}piperidin-4-yl)amino]pyrimido [5,4-d]pyrimidine] | 40 | 
12 | COC(=O)CN1CCC(Nc2ncc3ncnc(Nc4cccc(Br)c4)c3n2)CC1 [2(17)] | 30 | 144 °C
13 | O=C(O)CN1CCC(CCNc2ncc3ncnc(Nc4ccc(F)c(Cl)c4)c3n2)CC1 [1(9), 4-[(3-chloro-4-fluorophenyl)amino]-6-{2-[1-(carboxymethyl)piperidin-4-yl]ethylamino}pyrimido[5,4-d]pyrimidine] | 820 | 246 to 249 °C (dec.)
14 | COC(=O)CCN(C)C1CCN(c2ncc3ncnc(Nc4ccc(F)c(Cl)c4)c3n2)CC1 [2(15), 4-[(3-chloro-4-fluorophenyl)amino]-6-(4-{N-[2-(methoxycarbonyl)ethyl]-N-methylamino}piperidin-1-yl)pyrimido[5,4-d]pyrimidine] | 1760 | 

Results, then the compound that gave them:

Row | IC50 (human EGF-R) [nM] | melting point | Structure (SMILES)
15 | 77 | 167 °C | COC(=O)CN1CCC(Nc2ncc3ncnc(Nc4cc(Br)c(N)c(Br)c4)c3n2)CC1 [2(27), 4-[(4-amino-3,5-dibromophenyl)amino]-6-({1-[(methoxycarbonyl)methyl]piperidin-4-yl}amino)pyrimido[5,4-d]pyrimidine]
16 | 16 |  | COC(=O)CN[C@H]1CC[C@H](Nc2ncc3ncnc(Nc4ccc(F)c(Cl)c4)c3n2)CC1 [3(10), 4-[(3-chloro-4-fluorophenyl)amino]-6-[(trans-4-{[(methoxycarbonyl)methyl]amino}cyclohex-1-yl)amino]pyrimido[5,4-d]pyrimidine]
17 | 26 | 167 °C | COC(=O)CN1CCC(Nc2ncc3ncnc(Nc4ccc5[nH]ccc5c4)c3n2)CC1 [2(28), 4-[(indol-5-yl)amino]-6-({1-[(methoxycarbonyl)methyl]piperidin-4-yl}amino)pyrimido [5,4-d]pyrimidine]
18 | 840 | 202 to 205 °C | O=C(O)CN1CCC(Nc2ncc3ncnc(Nc4ccc(F)c(Cl)c4)c3n2)CC1 [Example 1, 4-[(3-chloro-4-fluorophenyl)amino]-6-{ [1-(carboxymethyl)piperidin-4-yl]amino}pyrimido[5.4-d]pyrimidine]
19 | 21 | 218 °C | COC(=O)CN1CCC(Nc2ncc3ncnc(Nc4cc(Cl)c(N)c(Cl)c4)c3n2)CC1 [2(26), 4-[(4-amino-3,5-dichlorophenyl)amino]-6-({1-[(methoxycarbonyl)methyl]piperidin-4-yl}amino)pyrimido[5,4-d]pyrimidine]
20 | 58 |  | CCOC(=O)CN(CC(=O)OCC)[C@H]1CC[C@H](Nc2ncc3ncnc(Nc4ccc(F)c(Cl)c4)c3n2)CC1 [3(4), 4-[(3-chloro-4-fluorophenyl)amino]-6-[(trans-4-{N,N-bis-[(ethoxycarbonyl)methyl]amino}cyclohex-1-yl)amino]pyrimido[5,4-d]pyrimidine]
21 | 2300 | 240 °C (dec.) | O=C(O)CN1CCN(c2ncc3ncnc(Nc4ccc(F)c(Cl)c4)c3n2)CC1 [Example 1(6), 4-[(3-chloro-4-fluorophenyl)amino]-6-[4-(carboxymethyl)piperazin-1-yl]pyrimido[5,4-d]pyrimidine]
22 | 103 | 162 to 164 °C | COC(=O)CN(CC(=O)OC)C1CCC(N(C)c2ncc3ncnc(Nc4ccc(F)c(Cl)c4)c3n2)CC1 (stereo not drawn) [3(12), 4-[(3-chloro-4-fluorophenyl)amino]-6-[N-(trans-4-{N,N′-bis[(methoxycarbonyl)methyl]amino}cyclohex-1-yl)-N-methylamino]pyrimido[5,4-d]pyrimidine]
23 | 20 |  | COC(=O)C(C(=O)OC)N1CCC(Nc2ncc3ncnc(Nc4cccc(Br)c4)c3n2)CC1 [3(16)]
24 | 20 |  | COC(=O)CN(CC(=O)OC)[C@H]1CC[C@H](Nc2ncc3ncnc(Nc4ccc(F)c(Cl)c4)c3n2)CC1 [3(5), 4-[(3-chloro-4-fluorophenyl)amino]-6-[(trans-4-{N,N-bis-[(methoxycarbonyl)methyl]amino}cyclohex-1-yl)amino]pyrimido [5,4-d]pyrimidine]
25 | 17 |  | COC(=O)CN1CCCC(Nc2ncc3ncnc(Nc4cccc(Br)c4)c3n2)C1 (centres unmarked) [3(17), 4-[(3-bromophenyl)amino]-6-({1-[(methoxycarbonyl)methyl]piperidin-3-yl}amino)pyrimido[5,4-d]pyrimidine]
26 | 40 |  | COC(=O)C(C(=O)OC)N1CCC(Nc2ncc3ncnc(Nc4ccc(F)c(Cl)c4)c3n2)CC1 [3(18)]
